Biological target: T1, Low molecular weight protein-tyrosine phosphatase A (Mycobacterium tuberculosis (strain ATCC 25618 / H37Rv), UniProt P9WIA1)
T1 sequence (P9WIA1 whole entry): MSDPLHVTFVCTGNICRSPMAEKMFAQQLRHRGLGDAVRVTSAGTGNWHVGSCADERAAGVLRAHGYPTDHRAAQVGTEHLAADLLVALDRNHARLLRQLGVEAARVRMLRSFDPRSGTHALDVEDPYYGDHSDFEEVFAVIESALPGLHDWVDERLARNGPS
Assay: Inhibition of Mycobacterium tuberculosis PTP-A

Row | SMILES | IC50 [µM]
1 | COc1cc(-c2[nH]ccc2Cl)oc1C1=c2[nH]c3cc2[C@H](C(C)C)[C@H]1CCCCCCCC=3 | 8.8
2 | C=c1[nH]c(=Cc2[nH]c(-c3ccc[nH]3)cc2OC)cc1CCCCC [PRODIGIOSIN] | 8.8

Reference: BindingDB's records for doi:10.1021/jm2012062 (Universidade Federal De Santa Catarina, 2012)
